Data: PMC12307812 (Nature Communications, 2025)
pIC50: −log10 of the molar value.

molecular target: T1, Recombinant Human TMPRSS2 (Homo sapiens, UniProt O15393); experiment: TMPRSS2 biochemical assay (Boc-Gln-Ala-Arg-AMC fluorogenic substrate); conditions: first round of screening on the NCATS in-house library (docking score selection); read-out: IC50
T1 construct: human TMPRSS2 residues 106492, N-terminal 6x His-tag; 6x His-tag (N); purchased Cusabio CSB-YP023924HU; host or cells: yeast
Method: Inhibitors of TMPRSS2 were tested using a high throughput activity assay. […] TMPRSS2 (5 µl, 0.018 mg/ml) in assay buffer (50 mM Tris pH 8, 150 mM NaCl, 0.01% Tween20) was dispensed to that, using a BioRAPTR (Beckman Coulter), for a total assay volume of 5 µl.
After incubation at room temperature for 1 h, fluorescence was measured. […] Raw plate reads for each titration point were normalized relative to a positive control containing no enzyme (0% activity, full inhibition) and a negative control containing DMSO-only wells (100% activity, basal activity). Data normalization was performed using GraphPad Prism (GraphPad Software, San Diego, CA).
We employed the curve fitting algorithm available in the SciPy package (version 1.10.1)[61] to derive the Hill slope and the IC50 value, along with their corresponding error estimates.

T1 sequence (O15393 106-492 limits assumed): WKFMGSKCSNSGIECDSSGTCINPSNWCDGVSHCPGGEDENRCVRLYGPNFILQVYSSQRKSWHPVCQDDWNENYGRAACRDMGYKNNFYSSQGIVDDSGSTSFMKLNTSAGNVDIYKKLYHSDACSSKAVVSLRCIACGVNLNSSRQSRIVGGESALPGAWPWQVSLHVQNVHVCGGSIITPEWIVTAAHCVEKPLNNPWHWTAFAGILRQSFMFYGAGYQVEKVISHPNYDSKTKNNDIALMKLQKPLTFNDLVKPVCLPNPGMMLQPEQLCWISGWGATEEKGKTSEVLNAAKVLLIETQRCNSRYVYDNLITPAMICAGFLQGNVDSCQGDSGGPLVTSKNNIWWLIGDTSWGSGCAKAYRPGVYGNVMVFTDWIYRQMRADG

Row | SMILES | pIC50
1 | OCCn1cc(-c2cnc3nnn(Cc4ccc5ncccc5c4)c3n2)cn1 [NCGC00263161-11] | 4.70
2 | COC(=O)Cc1c(C)c2ccc3c(c2oc1=O)CN(Cc1ccc(C)cc1)CO3 [NCGC00116348-01] | 4.80
3 | CC(=O)Nc1cccc(-c2cc3c(ccn3C)c(C(=O)NCc3c(C)cc(C)[nH]c3=O)n2)c1 [NCGC00411690-01] | 4.75
4 | CCOC(=O)c1cccc(Nc2ccc3cc(S(=O)(=O)N4CCCCC4)ccc3n2)c1 [NCGC00127764-01] | 4.85
5 | Cc1cc(C(=O)Nc2cc(Oc3ccc4nc(NC(=O)C5CC5)cn4n3)ccc2C)n(C)n1 [NCGC00485933-01] | 4.50
6 | CCCCC(=O)Oc1ccc2oc(-c3ccc(OC)cc3)cc(=O)c2c1 [NCGC00100604-01] | 4.90
7 | Cn1nnc(-c2ccc(-c3ccc(N4C[C@H](COP(=O)(O)O)OC4=O)cc3F)cn2)n1 [NCGC00482851-02] | 4.45
8 | COc1ccc(-c2cc(C(=O)Oc3ccc(C)c(C)c3)c3ccccc3n2)cc1 [NCGC00099485-01] | 4.80
9 | CC(C)c1ccc2oc(-c3ccc(NC(=O)c4cc5ccccc5o4)cc3)nc2c1 [NCGC00099237-01] | 4.65
10 | Fc1cc(F)cc(Cc2nc3nccc(-c4cc5ccccc5o4)n3n2)c1 [NCGC00424555-01] | 4.90
11 | COC(=O)c1ccc(Nc2nc(-c3ccc(C)cc3)nc3ccccc23)cc1 [NCGC00099825-01] | 4.75
12 | COC(=O)c1ccccc1NC(=O)CCCS(=O)(=O)c1nc(-c2ccccc2OC)cc(C(F)(F)F)n1 [NCGC00103995-01] | 4.85
13 | CCOC(=O)c1c(-c2ccc(OC)cc2)oc2ccc(OCc3ccc(F)cc3F)cc12 [NCGC00099773-01] | 4.50
14 | O=C(OCC(O)CO)c1ccccc1Nc1ccnc2c(C(F)(F)F)cccc12 (stereo not shown) [NCGC00249912-01] | 4.50
15 | CCOc1ccc(-n2nc(CO)c(C(=O)NCC(c3ccccc3)c3ccccc3)n2)cc1 [NCGC00117127-01] | 4.65
16 | COC(=O)c1ccc(OC)c(Cn2c(=O)n(-c3cccc(Cl)c3)c(=O)c3c2c2cc(C)ccc2n3C)c1 [NCGC00104930-01] | 4.50
17 | Cc1cccc(-n2ncc3c(Nc4ccc(Oc5ccc(Cl)cc5)cc4)ncnc32)c1 [NCGC00138820-01] | 4.90
18 | Cn1ccc2c(C(=O)NCCc3cnc[nH]3)nc(-c3cnn(Cc4ccccc4)c3)cc21 [NCGC00411713-01] | 4.45
19 | COC(=O)CNC(=O)c1nc(-c2cccc(C(F)(F)F)c2)c2ccccn12 [NCGC00476320-01] | 4.80
20 | Nc1n[nH]c(CNc2cc(-c3ccc(F)cc3)nc3ccnn23)n1 [NCGC00434595-01] | 4.70
21 | CC(=O)Nc1cccc(-c2nc(-c3c(C)noc3C)cc3c2cc(-c2ccccc2)n3C)c1 [NCGC00417192-01] | 5.05
22 | Cc1cc(C)c(CNC(=O)c2nc(-c3cccc(C(F)(F)F)c3)cc3[nH]ccc23)c(=O)[nH]1 [NCGC00411596-01] | 5.05
23 | O=C(NCc1ccc(-c2cnc3c(Oc4ccccc4)nccn23)cc1)c1ccn[nH]1 [NCGC00413991-01] | 4.45

same assay, conditions: hits from NCATS in-house library screening; read-out: IC50, TMPRSS2 biochemical assay

Row | SMILES | pIC50
24 | CCOC(=O)CCN(C(=O)c1ccc2c(c1)nc(CNc1ccc(C(=N)N)cc1)n2C)c1ccccn1 [dabigatran ethyl ester] | 5.65

same assay, conditions: second round of screening on the NCATS in-house library (dynamic h-score selection); read-out: IC50

Row | SMILES | pIC50
25 | COc1cccc(COC(=O)c2ccc(-c3nnn(Cc4ccccc4)n3)cc2)c1 [NCGC00102929-01] | 4.75
26 | O=C(OCC1CCCO1)c1ccc2c(c1)N(Cc1ccc(F)cc1)C(=O)c1ccccc1S2(=O)=O (stereo not shown) [NCGC00127812-01] | 4.80
27 | Nc1nn(-c2ccccc2)nc1C(=O)OCc1ccccc1Br [NCGC00102940-01] | 4.75
28 | Cc1cc(-c2cc3c(nc2-c2ccccc2)nc(C(=O)NCCN(C)C)n3C)ccn1 [NCGC00417822-01] | 4.70
29 | Nc1nn(-c2ccccc2)nc1C(=O)OCc1ccccc1 [NCGC00102837-01] | 4.75
30 | CC(=O)Nc1ccc(CN2C(=O)OC3(CCN(C(=O)c4cccc(C#N)c4)CC3)C2(C)c2ccccc2)cc1 (stereo not shown) [NCGC00415676-01] | 4.50
31 | Cc1ccc(C(=O)Oc2ccc(C(O)CNC(C)(C)C)cc2OC(=O)c2ccc(C)cc2)cc1 (stereo not shown) [NCGC00253593-01] | 4.85
